Laboratory results published in ChEMBL document CHEMBL1201862, “PubChem BioAssay data set” (2004).
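Step 1: Grow cells in 96-well plates. Step 2: Expose to compound for 48 hours at 5 concentrations. Step 3: Interpolate endpoints linearly; if unreached, use highest concentration. Abbreviation: GI50, concentration required for 50% inhibition of growth.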 Activity calls are given as the source filed them. Rule as the data show it: active = GI50 up to about 1.1 µM and inactive = higher.

Experiments:
Assay in all cases: NCI anticancer screen, dose series, 48 h
[1] = system: A549
[2] = system: ACHN
[3] = system: BT-549
[4] = system: CAKI-1
[5] = system: COLO 205
[6] = system: HCC 2998
[7] = system: HCT-116
[8] = system: HCT-15
[9] = system: HT-29
[10] = system: Hs-578T
[11] = system: IGROV-1
[12] = system: MCF7
[13] = system: MDA-MB-231
[14] = system: OVCAR-8
[15] = system: SF-539
[16] = system: SN12C
[17] = system: U-251
[18] = system: UO-31
[19] = system: Malme-3M
[20] = system: T47D

SMILES	GI50 [1]	GI50 [2]	GI50 [3]	GI50 [4]	GI50 [5]	GI50 [6]	GI50 [7]	GI50 [8] [µM]	GI50 [9]	GI50 [10]	GI50 [11]	GI50 [12]	GI50 [13]	GI50 [14]	GI50 [15]	GI50 [16]	GI50 [17]	GI50 [18]	GI50 [19]	GI50 [20]
COC(=O)C(=O)C(C(=O)C(=O)Nc1cccc([N+](=O)[O-])c1)c1nc2ccc(Cl)cc2nc1O (stereo not given)	> 100 µM (inactive)	> 100 µM (inactive)	> 100 µM (inactive)	95.7 µM (inactive)	> 100 µM (inactive)	> 100 µM (inactive)	> 100 µM (inactive)	> 100	> 100 µM (inactive)	> 100 µM (inactive)	> 100 µM (inactive)	> 100 µM (inactive)	65.3 µM (inactive)	> 100 µM (inactive)	45.5 µM (inactive)	> 100 µM (inactive)	> 100 µM (inactive)	36.7 µM (inactive)		
COC(=O)CCC(=O)NC1c2cccc3cccc(c23)Cn2c(=O)n(C)c(=O)n21 (stereo not given)	> 100 µM (inactive)	> 100 µM (inactive)	> 100 µM (inactive)	> 100 µM (inactive)	> 100 µM (inactive)	> 100 µM (inactive)	> 100 µM (inactive)	> 100	> 100 µM (inactive)	> 100 µM (inactive)	> 100 µM (inactive)	> 100 µM (inactive)	> 100 µM (inactive)	> 100 µM (inactive)	> 100 µM (inactive)	> 100 µM (inactive)	> 100 µM (inactive)	> 100 µM (inactive)	> 100 µM (inactive)	
COC(=O)c1ccc(C(=O)NC(Cc2ccc(Oc3cc(CC(NC(=O)c4ccccc4C(=O)OC)C(=O)OC)ccc3OC)cc2)C(=O)OC)cc1 (stereo not given)	> 100 µM (inactive)	> 100 µM (inactive)	74.8 µM (inactive)	> 100 µM (inactive)	> 100 µM (inactive)	> 100 µM (inactive)	> 100 µM (inactive)	> 100	> 100 µM (inactive)	4.21 µM (inactive)	> 100 µM (inactive)	67.5 µM (inactive)		86.3 µM (inactive)	63.5 µM (inactive)	> 100 µM (inactive)		> 100 µM (inactive)	> 100 µM (inactive)	> 100 µM (inactive)
O=c1ccn(-c2ccccn2)c(=O)n1-c1ccccn1	> 100 µM (inactive)	> 100 µM (inactive)		> 100 µM (inactive)	> 100 µM (inactive)	> 100 µM (inactive)	> 100 µM (inactive)	> 100	> 100 µM (inactive)	> 100 µM (inactive)	> 100 µM (inactive)	> 100 µM (inactive)	> 100 µM (inactive)	> 100 µM (inactive)	> 100 µM (inactive)	> 100 µM (inactive)	> 100 µM (inactive)	> 100 µM (inactive)	> 100 µM (inactive)	> 100 µM (inactive)
O=C(O)CCc1ccc2c(c1)C(=O)CC2	> 100 µM (inactive)	> 100 µM (inactive)	> 100 µM (inactive)		> 100 µM (inactive)	> 100 µM (inactive)	> 100 µM (inactive)	> 100	> 100 µM (inactive)		> 100 µM (inactive)	> 100 µM (inactive)	80.5 µM (inactive)	> 100 µM (inactive)	> 100 µM (inactive)	> 100 µM (inactive)	> 100 µM (inactive)	> 100 µM (inactive)	> 100 µM (inactive)	93.1 µM (inactive)
O=c1[nH]n(CCc2ccccc2CCl)c2ccc([N+](=O)[O-])cc12	99.1 µM (inactive)	> 100 µM (inactive)	33.3 µM (inactive)	91 µM (inactive)	> 100 µM (inactive)	> 100 µM (inactive)	52.1 µM (inactive)	> 100	88.1 µM (inactive)	54.3 µM (inactive)	83.9 µM (inactive)	48.5 µM (inactive)	76.2 µM (inactive)	71.3 µM (inactive)	> 100 µM (inactive)	> 100 µM (inactive)	81.8 µM (inactive)	25 µM (inactive)	> 100 µM (inactive)	
CCOC(=O)Cn1c(=O)c2nc(SC)sc2n(-c2ccccc2)c1=O	> 100 µM (inactive)	> 100 µM (inactive)	> 100 µM (inactive)		> 100 µM (inactive)	> 100 µM (inactive)	> 100 µM (inactive)	> 100	> 100 µM (inactive)	> 100 µM (inactive)	> 100 µM (inactive)	> 100 µM (inactive)	> 100 µM (inactive)	> 100 µM (inactive)		> 100 µM (inactive)	> 100 µM (inactive)	> 100 µM (inactive)	> 100 µM (inactive)	
O=S(=O)(c1ccccc1)c1cccc2c1NCCC2	33.3 µM (inactive)	58.9 µM (inactive)	20.8 µM (inactive)	27.9 µM (inactive)	> 10 µM (inactive)	13.5 µM (inactive)	42.5 µM (inactive)	32.4	37.8 µM (inactive)	52.1 µM (inactive)	52.5 µM (inactive)	40.8 µM (inactive)	39.6 µM (inactive)	58.6 µM (inactive)	45 µM (inactive)	42.7 µM (inactive)		27.5 µM (inactive)	29.1 µM (inactive)	
Cn1c(=O)c(C(=O)Nc2nc(C34CC5CC(CC(C5)C3)C4)cs2)c(O)c2ccccc21	79.8 µM (inactive)	24.3 µM (inactive)	75.2 µM (inactive)	73.5 µM (inactive)	> 100 µM (inactive)	> 100 µM (inactive)	> 100 µM (inactive)	> 100	> 100 µM (inactive)	23.8 µM (inactive)	77.3 µM (inactive)	> 100 µM (inactive)	70 µM (inactive)	> 100 µM (inactive)	> 100 µM (inactive)	> 100 µM (inactive)	57.5 µM (inactive)	> 100 µM (inactive)	> 100 µM (inactive)	
c1csc(-c2ccc(-c3cccc4nsnc34)s2)c1	62.1 µM (inactive)	> 100 µM (inactive)	> 100 µM (inactive)	35.8 µM (inactive)	> 100 µM (inactive)	> 100 µM (inactive)	94.8 µM (inactive)	> 100				14.7 µM (inactive)	> 100 µM (inactive)	> 100 µM (inactive)	> 100 µM (inactive)	> 100 µM (inactive)	91.2 µM (inactive)	> 100 µM (inactive)	> 100 µM (inactive)	5.32 µM (inactive)
C=C1[C@H]2O[C@H]2[C@@H](OC(C)=O)[C@@]2(C)[C@@H](OC(C)=O)C[C@@H](OC(=O)CCC)[C@@](C)(O)[C@@H]2[C@@H](OC(C)=O)[C@]2(O)[C@@H](C)C(=O)O[C@H]2[C@H]1Cl	> 100 µM (inactive)	> 100 µM (inactive)	> 100 µM (inactive)	> 100 µM (inactive)	> 100 µM (inactive)	> 100 µM (inactive)	> 100 µM (inactive)	> 100	> 100 µM (inactive)			> 100 µM (inactive)	> 100 µM (inactive)	> 100 µM (inactive)	> 100 µM (inactive)	> 100 µM (inactive)	> 100 µM (inactive)	> 100 µM (inactive)	> 100 µM (inactive)	> 100 µM (inactive)
FC(F)(F)c1cnc(N/N=C(/c2ccccc2)c2ccccn2)c(Cl)c1	3.53 µM (inactive)	3.21 µM (inactive)	11.1 µM (inactive)	5.85 µM (inactive)	2.51 µM (inactive)	5.92 µM (inactive)	3.26 µM (inactive)	1.98	0.31 µM (active)	9.14 µM (inactive)	2.83 µM (inactive)	2.44 µM (inactive)	5.57 µM (inactive)	2.39 µM (inactive)	4.6 µM (inactive)	7.52 µM (inactive)	4.9 µM (inactive)	4.94 µM (inactive)		
O=c1c2ccccc2nc2sc(/N=C/C=C/c3ccccc3)nn12	> 100 µM (inactive)	> 100 µM (inactive)	> 100 µM (inactive)	> 100 µM (inactive)	> 100 µM (inactive)	> 100 µM (inactive)	> 100 µM (inactive)	> 100	> 100 µM (inactive)	> 100 µM (inactive)	> 100 µM (inactive)	> 100 µM (inactive)		> 100 µM (inactive)	> 100 µM (inactive)	> 100 µM (inactive)	> 100 µM (inactive)	77.4 µM (inactive)	> 100 µM (inactive)	> 100 µM (inactive)
Cc1ncc(COP(=O)(O)O)c(/C=C2\SC(=S)NC2=O)c1O	> 100 µM (inactive)	> 100 µM (inactive)	> 100 µM (inactive)	> 100 µM (inactive)	> 100 µM (inactive)	> 100 µM (inactive)	> 100 µM (inactive)	> 100	> 100 µM (inactive)		> 100 µM (inactive)	> 100 µM (inactive)	> 100 µM (inactive)	> 100 µM (inactive)	> 100 µM (inactive)	> 100 µM (inactive)	> 100 µM (inactive)	> 100 µM (inactive)	> 100 µM (inactive)	> 100 µM (inactive)
CCNCC(=O)Nc1ccc2c(c1)C(=O)c1ccc(NC(=O)CNCC)cc1C2=O	2.41 µM (inactive)	1.92 µM (inactive)		8.77 µM (inactive)	1.71 µM (inactive)	1.7 µM (inactive)	1.44 µM (inactive)	1.93	2.45 µM (inactive)	4.02 µM (inactive)	5.51 µM (inactive)	1.64 µM (inactive)	3.3 µM (inactive)	2.18 µM (inactive)	4.97 µM (inactive)	1.87 µM (inactive)	1.72 µM (inactive)	3.21 µM (inactive)	15.5 µM (inactive)	3.86 µM (inactive)
